Data reported in PMC10564737, “Structure-based design of a phosphotyrosine-masked covalent ligand targeting the E3 ligase SOCS2” (Nature Communications, 2023).
Values joined by “and” are separate entries in the source; they are usually repeats but may differ in a detail not shown here. Equal values may be shown once. Read-outs that look alike come from different tables or passages of the source.

Target: T1, SBC2 (Homo sapiens, UniProt O14508)
T1 construct: SOCS2 (amino acids 32–198); His6 (N, cleaved yes); made in house; host or cells: E. coli BL21(DE3)
T1 sequence (O14508 32-198): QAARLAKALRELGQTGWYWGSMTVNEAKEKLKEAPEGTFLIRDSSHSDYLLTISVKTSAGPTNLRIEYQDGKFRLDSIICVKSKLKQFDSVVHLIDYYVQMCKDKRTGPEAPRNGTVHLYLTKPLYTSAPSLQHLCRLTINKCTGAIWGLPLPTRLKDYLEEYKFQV
T1 sequence (Q15370 1-104 partner limits assumed): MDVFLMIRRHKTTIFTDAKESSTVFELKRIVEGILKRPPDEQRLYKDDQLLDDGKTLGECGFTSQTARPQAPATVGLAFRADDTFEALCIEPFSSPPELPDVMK
T1 sequence (Q15369 17-112 partner limits assumed): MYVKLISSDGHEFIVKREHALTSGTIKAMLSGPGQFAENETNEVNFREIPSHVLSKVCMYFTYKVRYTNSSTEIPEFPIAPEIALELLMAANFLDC
Assay: Covalent fluorescence polarization (FP) probe displacement assay
Assay type: binding
Settings: for kinact/KI: read-out: Slope: Kinact/Ki (converted); for Anisotropy based on Raw Data (485): Cycle 7 (30 min); for Fb, fraction bound: Cycle 2 (5 min); for Anisotropy data 485,520,520 / Normalised anisotropy (0 nM MN551 = 1, free probe = 0) / Anisotropy normalised (0 nM MN551 = 1, free probe = 0): n=1
From the text: With the specific covalent modification of Cys111 established, we decided to fully characterize MN551 as a covalent SOCS2 inhibitor. […] (Fig. 2g, h, Supplementary Fig. 9). Due to the covalent nature of the competing inhibitor, a time-dependent reduction in the fraction of protein-bound probe is observed. […] This value illustrates reasonable specificity for a covalent inhibitor, with nonetheless scope for future optimization. In addition to characterizing the kinetic covalency parameters, we have also assessed the stability of the MN551 by monitoring its reactivity (half-life >70 min) with reduced glutathione (GSH) (Supplementary Fig. 10)[35].
To monitor the SBC2-ligand binding kinetics we designed a fluorescein-labeled small-molecule probe - compound 26. The fluorescence polarization (anisotropy) of a threefold serial dilution of 50 µM SBC2 in 10 nM of the probe in 100 mM HEPES pH 7.5, 50 mM NaCl, 0.5 mM TCEP, 2% DMSO was measured to determine the KL (Supplementary Fig. 9A) (BMG Labtech PHERAstar – firmware v1.33). Protein titration and the curves were fitted using GraphPad Prism 9, using one-site fitting models to determine the probe binding constant, KL. Samples were run in triplicate in 384 well plates, using a total volume per well of 16 μL. The bound fraction of the probe is measure using the equation:1 Fb=Af−A/Af−Ab Where,
A time-dependent reduction in probe anisotropy were measured for a 2-fold serial dilution of […] compound MN551 in 10 nM probe +300 μM SBC2. To determine the initial reversible binding affinity, the initial bound fraction of the probe at time = 0, Fbo (the y-intercept in Fb v/s Time plot, Supplementary Fig. 9B) was plotted against MN551 concentration, and the obtained IC50 is then converted to Ki (Supplementary Fig. 9C)[17]. The slope from Fb versus time graph when divided by Fbo gives rate of covalency, kobs. A plot of kobs v/s MN551 concentration using Michaelis–Menten model of GraphPad Prism 9, provides the parameters kinact (maximum potential rate of inactivation) and KI (concentration of MN551 at which kobs = kinact/2) (Supplementary Fig. 9D, E).
The observed first-order rate constant, kobs is related to KI and kinact by the equation:2 kobs=kinactI/KI+I
At [I]«[KI] the above equation is converted to3 […]
The slope from the plot of kobs against concentration of MN551 gives us the covalent efficiency parameter kinact/KI (Supp Fig. 9F)[30],[33].

[1] = MN551 12.599 nM, Cycle 11 (50 min)
[2] = MN551 12.599 nM, Cycle 18 (85 min)
[3] = MN551 17.6386 nM, Cycle 11 (50 min)
[4] = MN551 17.6386 nM, Cycle 12 (55 min)
[5] = MN551 17.6386 nM, Cycle 18 (85 min)
[6] = MN551 24.694 nM, Cycle 11 (50 min)
[7] = MN551 24.694 nM, Cycle 12 (55 min)
[8] = MN551 24.694 nM, Cycle 18 (85 min)
[9] = MN551 34.5716 nM, Cycle 11 (50 min)
[10] = MN551 34.5716 nM, Cycle 12 (55 min)
[11] = MN551 34.5716 nM, Cycle 18 (85 min)

Compound: O=C(CCl)Nc1cccc(CNC(=O)[C@H](Cc2ccc(OP(=O)(O)O)cc2)NC(=O)Cc2ccc(F)cc2)c1 [MN551]
- kinact (FP competition assay to evaluate MN551 covalent efficiency, experiment n=1, from Michaelis-Menten fit (Vmax), read-out: Kinact (converted)): 0.0145 min⁻¹
- kinact (FP competition assay to evaluate MN551 covalent efficiency, experiment n=1, read-out: Kinact (converted)): 0.0145 min⁻¹
- kinact/KI (FP competition assay to evaluate MN551 covalent efficiency, experiment n=1, slope of linear fit, MN551 below Ki titration): 55.8 M⁻¹ s⁻¹
- kinact/KI (FP competition assay to evaluate MN551 covalent efficiency, experiment n=1, slope of linear fit): 55.8 M⁻¹ s⁻¹
- kinact (FP competition assay, replicate n=3, read-out: Kinact (min-1) (converted)): 0.0174 min⁻¹
- kinact (FP competition assay, replicate n=3, read-out: Kinact (s-1)): 0.0174 min⁻¹
- kinact/KI (FP competition assay, replicate n=3): 61.5 M⁻¹ s⁻¹
- Anisotropy based on Raw Data (485) (MN551 12.207 nM): 281.1 and 280.8 and 279.5
- Fb, fraction bound (MN551 12.207 nM): 0.9935 and 1.0185 and 1.023
- Anisotropy (MN551 12.207 nM, Cycle 11 (50 min)): 276.9 and 277 and 280.3
- Anisotropy data 485,520,520 (MN551 12.207 nM, Cycle 18 (85 min)): 272.5 and 273.4 and 274.8
- Anisotropy based on Raw Data (485) (MN551 12.599 nM): 275 and 272 and 270
- Normalised anisotropy (0 nM MN551 = 1, free probe = 0) (MN551 12.599 nM, Cycle 13 (60 min)): 0.9972 and 0.9668 and 1.008
- Normalised anisotropy (0 nM MN551 = 1, free probe = 0) (MN551 12.599 nM, Cycle 14 (65 min)): 1.04 and 1.018 and 1.012
- Fb, fraction bound (MN551 12.599 nM): 1.02 and 0.9926 and 1.014
- Anisotropy [1]: 278.4 and 278.3 and 275.7
- Fb [1]: 1.027 and 1.013 and 1.017
- Fb (MN551 12.599 nM, Cycle 12 (55 min)): 1.006 and 1.0163 and 0.9962
- Anisotropy data 485,520,520 [2]: 273.9 and 272.6 and 271.8
- Anisotropy normalised (0 nM MN551 = 1, free probe = 0) [2]: 1.0213 and 1.004 and 1.0408
- Anisotropy normalised (0 nM MN551 = 1, free probe = 0) (MN551 12.599 nM, Cycle 19 (90 min)): 1.03 and 1.012 and 1.015
- Anisotropy normalised (0 nM MN551 = 1, free probe = 0) (MN551 12.599 nM, Cycle 20 (95 min)): 0.9942 (2×) and 0.9893
- Anisotropy based on Raw Data (485) (MN551 17.6386 nM): 276.7 and 273.3 and 271.3
- Normalised anisotropy (0 nM MN551 = 1, free probe = 0) (MN551 17.6386 nM, Cycle 13 (60 min)): 1.033 and 0.9926 and 1.023
- Normalised anisotropy (0 nM MN551 = 1, free probe = 0) (MN551 17.6386 nM, Cycle 14 (65 min)): 1.058 and 1.0113 and 1.0096
- Fb, fraction bound (MN551 17.6386 nM): 1.066 and 1.015 and 1.047
- Anisotropy [3]: 282.4 and 277.6 and 277.2
- Fb [3]: 1.065 and 1.007 and 1.031
- Anisotropy [4]: 282.3 and 277.4 and 277.1
- Fb [4]: 1.042 and 1.027 and 1.02
- Anisotropy data 485,520,520 [5]: 277.5 and 272.7 and 272.2
- Anisotropy normalised (0 nM MN551 = 1, free probe = 0) [5]: 1.056 and 1.005 and 1.045
- Anisotropy normalised (0 nM MN551 = 1, free probe = 0) (MN551 17.6386 nM, Cycle 19 (90 min)): 1.075 and 1.012 and 1.027
- Anisotropy normalised (0 nM MN551 = 1, free probe = 0) (MN551 17.6386 nM, Cycle 20 (95 min)): 1.027 and 0.9971 and 1.019
- Anisotropy based on Raw Data (485) (MN551 24.4141 nM): 282.9 and 279.8 and 282
- Fb, fraction bound (MN551 24.4141 nM): 1.016 and 1.08 and 1.041
- Anisotropy (MN551 24.4141 nM, Cycle 11 (50 min)): 280.9 and 281.2 and 279.7
- Anisotropy (MN551 24.4141 nM, Cycle 12 (55 min)): 280
- Anisotropy data 485,520,520 (MN551 24.4141 nM, Cycle 18 (85 min)): 276.9 and 277.7 and 276.3
- Anisotropy based on Raw Data (485) (MN551 24.694 nM): 274.8 and 272.6 and 276.9
- Normalised anisotropy (0 nM MN551 = 1, free probe = 0) (MN551 24.694 nM, Cycle 13 (60 min)): 1.02 and 0.977 and 1.0251
- Normalised anisotropy (0 nM MN551 = 1, free probe = 0) (MN551 24.694 nM, Cycle 14 (65 min)): 1.023 and 1.014 and 1.022
- Fb, fraction bound (MN551 24.694 nM): 1.025 and 1.008 and 1.0546
- Anisotropy [6]: 280.6 and 275.8 and 277.4
- Fb [6]: 1.048 and 0.9896 and 1.033
- Anisotropy [7]: 282.7 and 278.3 and 277.5
- Fb [7]: 1.046 and 1.035 and 1.024
- Anisotropy data 485,520,520 [8]: 274.3 and 273.5 and 273.4
- Anisotropy normalised (0 nM MN551 = 1, free probe = 0) [8]: 1.025 and 1.012 and 1.057
- Anisotropy normalised (0 nM MN551 = 1, free probe = 0) (MN551 24.694 nM, Cycle 19 (90 min)): 1.038 and 1.023 and 1.016
- Anisotropy normalised (0 nM MN551 = 1, free probe = 0) (MN551 24.694 nM, Cycle 20 (95 min)): 1.035 and 1.007 and 1.013
- Anisotropy based on Raw Data (485) (MN551 34.5716 nM): 274.4 and 276.1 and 281.6
- Normalised anisotropy (0 nM MN551 = 1, free probe = 0) (MN551 34.5716 nM, Cycle 13 (60 min)): 1.034 and 1.023 and 1.046
- Normalised anisotropy (0 nM MN551 = 1, free probe = 0) (MN551 34.5716 nM, Cycle 14 (65 min)): 1.052 and 1.027 and 1.028
- Fb, fraction bound (MN551 34.5716 nM): 1.054 and 1.044 and 1.086
- Anisotropy [9]: 283.1 and 279.4 and 279.3
- Fb [9]: 1.072 and 1.024 and 1.051
- Anisotropy [10]: 281.9 and 279 and 279.2
- Fb [10]: 1.038 and 1.042 and 1.04
- Anisotropy data 485,520,520 [11]: 278.1 and 277 and 275.1
- Anisotropy normalised (0 nM MN551 = 1, free probe = 0) [11]: 1.062 and 1.046 and 1.074
- Anisotropy normalised (0 nM MN551 = 1, free probe = 0) (MN551 34.5716 nM, Cycle 19 (90 min)): 1.076 and 1.071 and 1.037
- Anisotropy normalised (0 nM MN551 = 1, free probe = 0) (MN551 34.5716 nM, Cycle 20 (95 min)): 1.051 and 1.0281 and 1.04
- Anisotropy based on Raw Data (485) (MN551 48.4003 nM): 280.1 and 278.6 (2×)
- Normalised anisotropy (0 nM MN551 = 1, free probe = 0) (MN551 48.4003 nM, Cycle 13 (60 min)): 1.018 and 0.9871 and 0.9961
- Normalised anisotropy (0 nM MN551 = 1, free probe = 0) (MN551 48.4003 nM, Cycle 14 (65 min)): 1.029 and 1 and 1.015
